Measured values taken from patent publication EP4124338A1, “SIGMA-1 RECEPTOR ACTIVATOR FOR USE IN THE TREATMENT OF A PATHOLOGY ASSOCIATED WITH WFS1 MUTATION” (Université de Montpellier, priority 2021, dated 2023).
Structures can show the parent of a compound that is named as a salt.

Legend:
Wfs1^ΔExon8 mice [1] = assay: Elevated plus-maze test (anxiety); assay type: in vivo; conditions: female Wfs1^ΔExon8 mice, 0.3 mg/kg ip 30 min before
Excerpt: (§1) Drugs and administration procedures: 2-(4-morpholinethyl)-1-phenylcyclohexanecarboxylate hydrochloride (PRE-084) was from Sigma-Aldrich (Saint-Quentin-Fallavier, France). […]
Elevated plus-maze test: The apparatus consisted of two open arms (24 × 8 cm^2), in white PVC, and two enclosed arms (24 × 8 × 20 cm^3), in dark grey PVC. The arms extended from a central platform (8 × 8 cm), and the maze was elevated to a height of 50 cm above the floor. Each mouse was placed at the centre of the plus-maze and its exploration behaviour was recorded during 10 min. The time spent and numbers of entries into the enclosed or open arms were recorded. Results were expressed as total number of entries into the arms, time spent in the open arms, time spent per visit in the open arms.
(§2) Experimental series: For phenotyping, animals were tested in series in the different behavioral tests assessing activity, learning and memory or anxiety, finishing with the most stressful procedures: (1) open-field (1 day), (2) spontaneous alternation (1 day), (3) object recognition (2 days), (4) place learning in the water-maze water-maze (5+2 days), (5) passive avoidance (2 days), (6) elevated plus-maze (1 day), and (7) black-and-white box exploration (1 day), in that order and over 16 days. For PRE-084 treatment experiments, animals were tested in series on a limited number of tests: spontaneous alternation (1 day), object recognition (2 days) and passive avoidance (2 days) for males, elevated plus-maze (1 day) and black-and-white box (1 day) for females.

Wfs1ab^KO larvae = assay: Visual Motor Response (VMR), locomotor activity of larvae during light OFF periods; assay type: in vivo, zebrafish; conditions: Fig. 9
Description: Zebrafish Generation: All experiments were performed in accordance with the 2010/63/EU Directive and the ARRIVE guidelines. Zebrafish were purchased at the KIT - European Zebrafish Resource Center. Heterozygous Wfs1a^C799X and Wfs1b^W493X mutant line were maintained in an automated fish tank system (ZebTEC, Tecniplast) at 28°C, pH 7, conductivity around 500 µS and with a 14h:10h light:dark cycle. They were fed with standard diet. Heterozygous Wfs1a^C799X/+ zebrafish were crossed to generate wild-type (Wfs1a^WT) and homozygous mutant Wfs1a^C799X zebrafish (Wfs1a^C799X), which became progenitors in order to generate future generations for the experiments. […]
Visual Motor Response (VMR): The VMR assay quantifies the locomotor activity of zebrafish larvae to light changes using infrared tracking system. […] At 5-dpf, the locomotor behavior of larvae was monitored by using an automated videotracking device (Zebrabox®, ViewPoint) by employing a DinionXF 1/3-inch Monochrome camera (model BFLY-PGE-13H2M, FLIR) fitted with a fixed-angle megapixel lens (SR5014MP-5C, SEIKO Optical). […] The floor of the box emitted by a light-controlling unit a white light (69-83 µW/cm2 measured at 495 λ). The response to stimuli was recorded by an infra-red (IR) camera (25 frames/s) under IR light illumination at 850 nm, which the animals could not perceive. […] The distance covered was measured in mm/s. […]

Wfs1^ΔExon8 mice [2] = assay: Spontaneous alternation in the Y-maze (spatial working memory); assay type: in vivo; conditions: male Wfs1^ΔExon8 mice; PRE-084 0.3 mg/kg ip (legend b25; b84 says 1 mg/Kg) 30 min before the Y-maze session; Fig. 2
Excerpt: as §1
Spontaneous alternation in the Y-maze: The test assesses spatial working memory. The maze was made of grey polyvinylchloride. Each arm was 40 cm long, 13 cm high, 3 cm wide at the bottom, 10 cm wide at the top, and converging at an equal angle. Each mouse was placed at the end of one arm and allowed to move freely through the maze during an 8 min session. The series of arm entries, including possible returns into the same arm, was recorded visually. An alternation was defined as entries into all three arms on consecutive occasions. The number of maximum alternations was therefore the total number of arm entries minus two and the percentage of alternation was calculated as (actual alternations/maximum alternations) × 100. […] Thirteen animals were discarded accordingly corresponding to 26% attrition. […]

Wfs1^ΔExon8 mice [3] = assay: Step-through type passive avoidance test (non-spatial long-term memory); assay type: in vivo; conditions: male Wfs1^ΔExon8 mice, 0.3 mg/kg ip 30 min before training, retention
Excerpt: as §1
Step-through type passive avoidance test: The test measures non-spatial long-term memory. The apparatus is a two-compartments (15 × 20 × 15 cm high) box with one illuminated with white polyvinylchloride walls and the other darkened with black polyvinylchloride walls and a grid floor. A guillotine door separates each compartment. A 60 W lamp positioned 40 cm above the apparatus lights up the white compartment during the experiment. Scrambled foot shocks (0.3 mA for 3 s) could be delivered to the grid floor using a shock generator scrambler (Lafayette Instruments, Lafayette, USA). The guillotine door was initially closed during the training session. Each mouse was placed into the white compartment. After 5 s, the door was raised. […] The step-through latency, that is, the latency spent to enter the darkened compartment, and the shock sensitivity (estimated as 0 = no reaction, 1 = flinching reactions, 2 = flinchings and vocalizations) were recorded. […] The step-through latency and escape latency (corresponding to the time spent to exit the dark compartment) were recorded up to 300 s each. […]

Wfs1^ΔExon8 mice [4] = assay: Black-and-white exploration box test (anxiety); assay type: in vivo; conditions: female Wfs1^ΔExon8 mice, 0.3 mg/kg ip 30 min before
Excerpt: as §1
Black-and-white exploration box test: Anxiety level of WFS1 KO mice was first examined using the black-and-white exploration box. It consisted of two adjacent compartments (23 × 16 × 10 cm^3) separated by a small opening (6 × 6 cm^2). The light compartment is brightly lit from above and covered with a transparent lid, and the dark compartment is covered with a black lid. Mice were placed in the light box, and exploration measured during 10 min by IR videotracking (Viewpoint). The time spent in each compartment and number of crossings among compartments were recorded. The time in the light compartment per visit was calculated. […] Seven animals were discarded accordingly corresponding to 14% attrition.
as §2

Wfs1^ΔExon8 mice [5] = assay: Place learning in the water-maze (spatial reference memory); assay type: in vivo
Description: as §1
Place learning in the water-maze: Spatial reference memory was analyzed using a water-maze procedure. A transparent Plexiglas non-slippery platform (Ø 10 cm) was immersed in a circular pool (Ø 140 cm, height 40 cm), under the water surface during acquisition. The water temperature, 23 ± 1°C, light intensity, external cues in the room, and water opacity were rigorously reproduced. Swimming was videotracked (Viewpoint), with trajectories being analyzed as latencies and distances. The software divided the pool into four quadrants. Training consisted in three swims per day for 6 days, with 15 min intertrial-time interval. Start positions, set at each limit between quadrants, were randomly selected and each mouse was allowed a 90 s swim to find the platform, initially placed in the NE quadrant. […] The median latency and swim path length were calculated for each training day. Acquisition slopes were also calculated individually over the acquisition period. Forty-eight hours after the last swim, on day 7, a probe test was performed during which the platform was removed and each animal allowed a free 60 s swim. The time spent in the training (T) quadrant and the average of time spent in the 3 others (o) were determined. On days 8, mice were re-tested in the water-maze for assessing visual ability and non-spatial learning. They were submitted to the acquisition of a visible platform placed in a new location, with training consisting in three swims per day with 15 min intertrial-time interval. Swimming was analyzed as latencies. No exclusion criterion has been set in this test.

Wfs1^ΔExon8 mice [6] = assay: Object recognition test (short-term recognition memory); assay type: in vivo; conditions: male Wfs1^ΔExon8 mice
Excerpt: as §1
Object recognition test: The test measures short-term recognition memory. The apparatus consisted in four squared open-fields (50 cm × 50 cm × 50 cm high) made in white Plexiglas and placed on a floor equipped with infrared (IR) light emitting diodes. The locomotor activity of the animal and position of their nose could be captured through an IR-sensitive camera and analyzed using the Videotrack® and Nosetrack® softwares (Viewpoint). Session 1: animals were allowed to acclimate during 10 min to the open-field. The mouse locomotion was analyzed by videotracking. […] Each mouse was placed in the open-field and the exploratory activity and nose position was recorded during 10 min. The activity was analyzed by videotracking in terms of number of contacts with the objects and duration of contacts. […] Each mouse was placed again in the open-field and the exploratory activity recorded during 10 min. The activity was analyzed similarly. The preferential exploration index was calculated as the ratio of the number of contacts with the object in position 2 over the total number of contacts with the two objects. […]

SMILES: O=C(OCCN1CCOCC1)C1(c2ccccc2)CCCCC1 [PRE-084, 2-(4-morpholinethyl)-1-phenylcyclohexanecarboxylate hydrochloride]
- maze exploration (total number of arm entries) (Wfs1^ΔExon8 mice [1]; Fig. 7a): no impact was noted
- time spent in open arms (Wfs1^ΔExon8 mice [1]; Fig. 7b): slightly increased
- time per visit in open arms (Wfs1^ΔExon8 mice [1]; Fig. 7c): significantly increased
- hyperlocomotor response (Wfs1ab^KO larvae; at 3 and 10 µM in the bath): down to the WT line mobility
- hyperlocomotor response (Wfs1ab^KO larvae; between 0.1 and 10 µM in the bath, 4 dpf to 5 dpf): concentration-dependent decrease of the hyperlocomotor response
- spontaneous alternation (Wfs1^ΔExon8 mice [2]): very significant recovery of spontaneous alternation
- escape latency (Wfs1^ΔExon8 mice [3]; Fig. 5b): significantly reduced
- step-through latency deficit (Wfs1^ΔExon8 mice [3]; compared to V-treated Wfs1^WT mice, Fig. 5a): very significant for V-treated Wfs1^ΔExon8 mice but not for PRE-084-treated Wfs1^ΔExon8 mice
- number of crossing (Wfs1^ΔExon8 mice [4]; Fig. 6a): slightly reduced
- time spent in the light compartment (Wfs1^ΔExon8 mice [4]; Fig. 6b): increased up to the levels of Wfs1^WT mice
- time per visit (light compartment) (Wfs1^ΔExon8 mice [4]; Fig. 6c): increased up to the levels of Wfs1^WT mice
- acquisition slopes (Wfs1^ΔExon8 mice [5]; male Wfs1^ΔExon8 mice, compared to V-treated Wfs1^WT mice, Fig. 4c): only vehicle (V)-treated Wfs1^ΔExon8 mice showed a statistically significant decrease
- delay in acquisition / swimming latencies (Wfs1^ΔExon8 mice [5]; male Wfs1^ΔExon8 mice, daily injection 0.3 mg/kg ip 30 min before 1st swim of each training trial, Fig. 4b): prevented this delay and significantly decreased swimming latencies during the two last trials
- probe test, exploration of the T quadrant (Wfs1^ΔExon8 mice [5]; male mice, 60-s swim without platform, Fig. 4d): no impact of the PRE-084 was noted
- object exploration during session 2 (Wfs1^ΔExon8 mice [6]; 0.3 mg/kg ip 30 min before session with two identical objects, Fig. 3a): failed to affect object exploration
- exploration for the novel object in session 3 (Wfs1^ΔExon8 mice [6]; 0.3 mg/kg ip, Fig. 3b): attenuated the deficit of exploration for the novel object
